According to US6737383B1, “Herbicidal oxadiazolidines” (priority 1999, dated 2004):

Legend:
[1] = system: morningglory; experiment: Test A morningglory; assay type: in vivo, Ipomoea spp.; settings: 0 to 10 scale where 0 is no effect and 10 is complete control
Outline: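 Visual injury score, 0 (no effect) to 10 (complete control), vs untreated controls at ~11 d in greenhouse. Pre: soil drench on sandy loam. Post: spray to runoff, 1–2 leaf stage.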

[2] = system: common groundsel; experiment: Test D common groundsel; assay type: in vivo, Senecio vulgaris; settings: Preemergence, 0 to 100 scale
Excerpt: (§1) Seeds, tubers, or plant parts of Alexandergrass (Brachiaria plantaginea), bermuda-grass (Cynodon dactylon), common pursiane (Portulaca oleracea), common ragweed (Ambrosia elatior), common groundsel (Senecio vulgaris), dallisgrass (Paspalum dilatatum), goosegrass (Eleusine indica), guineagrass (Panicum maximum), itchgrass (Rottboellia exaltata), Johnson grass (Sorghum halepense), large crabgrass (Digitaria sanguinalis), pitted morningglory (Ipomoea lacunosa), purple nutsedge (Cyperus rotundus), sandbur (Cenchrus echinatus), sourgrass (Trichachne insularis), Spanishneedles (Bidens bipinnata), surinam grass (Brachiaria decumbens) and tall mallow (Malva sylvestris) were planted into greenhouse pots of flats containing greenhouse planting medium. Plant species were grown in separate pots or individual compartments. Preemergence applications were made within one day of planting the seed or plant part.
(§2) Test chemicals were formulated in a non-phytotoxic solvent mixture which included a surfactant and applied preemergence to the surface of the pot containing seeds in a sandy loam soil. Untreated control pots and treated pots were placed in the greenhouse for growth and visually evaluated for injury 14 to 21 days after herbicide application. Plant response ratings, summarized in Table C, are based on a 0 to 100 scale where 0 is no injury and 100 is complete control. A dash (−) response means no test result.

[3] = system: goosegrass; experiment: Test D goosegrass; assay type: in vivo, Eleusine indica; settings: Preemergence, 0 to 100 scale
Outline: (§3)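 Visual injury ratings, 0 = no injury to 100 = complete control, taken 14 to 21 days after treatment. Test chemicals were in a surfactant-containing non-phytotoxic solvent; preemergence treatments went onto the sandy loam surface of seeded greenhouse pots within one day of sowing.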

[4] = system: sandbur; experiment: Test D sandbur; assay type: in vivo, Cenchrus echinatus; settings: Preemergence, 0 to 100 scale
Outline: as §3

[5] = system: Spanishneedles; experiment: Test D Spanishneedles; assay type: in vivo, Bidens bipinnata; settings: Preemergence, 0 to 100 scale
Outline: as §3

[6] = system: tall mallow; experiment: Test D tall mallow; assay type: in vivo, Malva sylvestris; settings: Preemergence, 0 to 100 scale
Excerpt: as §1, §2

[7] = system: Alexandergrass; experiment: Test D Alexandergrass; assay type: in vivo, Brachiaria plantaginea; settings: Postemergence, 0 to 100 scale
[8] = system: bermuda-grass; experiment: Test D bermudagrass; assay type: in vivo, Cynodon dactylon; settings: Postemergence, 0 to 100 scale
[9] = system: common ragweed; experiment: Test D common ragweed; assay type: in vivo, Ambrosia elatior; settings: Postemergence, 0 to 100 scale
[10] = system: dallisgrass; experiment: Test D dallisgrass; assay type: in vivo, Paspalum dilatatum; settings: Postemergence, 0 to 100 scale
[11] = system: itchgrass; experiment: Test D itchgrass; assay type: in vivo, Rottboellia exaltata; settings: Postemergence, 0 to 100 scale
[12] = system: Johnson grass; experiment: Test D Johnson grass; assay type: in vivo, Sorghum halepense; settings: Postemergence, 0 to 100 scale
[13] = system: pitted morningglory; experiment: Test D pitted morningglory; assay type: in vivo, Ipomoea lacunosa; settings: Postemergence, 0 to 100 scale
[14] = system: sandbur; experiment: Test D sandbur; assay type: in vivo, Cenchrus echinatus; settings: Postemergence, 0 to 100 scale
[15] = system: surinam grass; experiment: Test D surinam grass; assay type: in vivo, Brachiaria decumbens; settings: Postemergence, 0 to 100 scale
[16] = system: tall mallow; experiment: Test D tall mallow; assay type: in vivo, Malva sylvestris; settings: Postemergence, 0 to 100 scale
[17] = system: Green foxtail; experiment: Test D green foxtail; assay type: in vivo; settings: Rate 250 g/ha; Postemergence; 0 to 100 scale
[18] = system: Green foxtail; experiment: Test D green foxtail; assay type: in vivo; settings: Postemergence, 0 to 100 scale, 0 no injury, 100 complete control
[19] = system: Green foxtail; experiment: Test D green foxtail; assay type: in vivo; settings: Rate 250 g/ha; Postemergence; 0 to 100 scale; remark: listed apart in the source
[20] = system: Green foxtail; experiment: Test D green foxtail; assay type: in vivo; settings: Postemergence, 0 to 100 scale, 0 no injury, 100 complete control; remark: listed apart in the source
[21] = system: Green foxtail; experiment: Test D green foxtail; assay type: in vivo; settings: Postemergence, 0 to 100 scale, 0 no injury, 100 complete control; remark: listed apart in the source
[22] = Rate 32 g/ha, 0 no injury, 100 complete control
[23] = Rate 64 g/ha, 0 no injury, 100 complete control
[24] = Rate 125 g/ha, 0 no injury, 100 complete control
[25] = Rate 16 g/ha, 0 no injury, 100 complete control

CCN(CC)C(=O)n1oc(=O)n(-c2ccc(F)cc2)c1=O [Compound 3]
0: Plant response rating, Morningglory ([1]; Postemergence, Rate 1000 g/ha) | Plant response rating, Morningglory ([1]; Pre-emergence, Rate 2000 g/ha)

Cc1ccc(-n2c(=O)on(C(=O)N(c3ccc(F)cc3F)C(C)C)c2=O)c(C)c1 [Compound 24]
50: Plant response rating, Goosegrass [3, 22] | Plant response rating, Goosegrass [3, 23]
20: Plant response rating, Sandbur [4, 22] | Sandbur plant response rating [4, 23] | Sandbur plant response rating [4, 24] | Plant response rating, Sandbur ([4]; Rate 250 g/ha)
100: Plant response rating, Goosegrass ([3]; Rate 500 g/ha) | Plant response rating, Sandbur ([4]; Rate 500 g/ha)
98: Plant response rating, Goosegrass [3, 24] | Plant response rating, Goosegrass ([3]; Rate 250 g/ha)
0: Plant response rating, Com. groundsel [2, 22] | Plant response rating, Com. groundsel [2, 23] | Plant response rating, Com. groundsel [2, 24] | Plant response rating, Com. groundsel ([2]; Rate 250 g/ha) | Plant response rating, Com. groundsel ([2]; Rate 500 g/ha) | Plant response rating, Spanishneedles [5, 22] | Spanishneedles plant response rating [5, 23] | Spanishneedles plant response rating [5, 24] | Plant response rating, Spanishneedles ([5]; Rate 500 g/ha) | Plant response rating, Tall Mallow [6, 22] | Tall Mallow plant response rating [6, 23] | Tall Mallow plant response rating [6, 24] | Plant response rating, Tall Mallow ([6]; Rate 250 g/ha) | Plant response rating, Tall Mallow ([6]; Rate 500 g/ha)

CC(C)N(C(=O)n1oc(=O)n(C(C)C)c1=O)c1ccccc1 [Compound 113]
0: Plant response rating, Com. groundsel [2, 25] | Plant response rating, Sandbur [4, 25] | Plant response rating, Spanishneedles [5, 25] | Plant response rating, Spanishneedles [5, 22] | Spanishneedles plant response rating [5, 23] | Spanishneedles plant response rating [5, 24] | Plant response rating, Tall Mallow [6, 25] | Plant response rating, Tall Mallow [6, 22] | Tall Mallow plant response rating [6, 23]
30: Tall Mallow plant response rating [6, 24]
65: Plant response rating, Com. groundsel [2, 22] | Plant response rating, Sandbur [4, 22]
90: Plant response rating, Goosegrass [3, 25]
100: Plant response rating, Com. groundsel [2, 23] | Plant response rating, Com. groundsel [2, 24] | Plant response rating, Goosegrass [3, 22] | Plant response rating, Goosegrass [3, 23] | Plant response rating, Goosegrass [3, 24] | Sandbur plant response rating [4, 24]
75: Sandbur plant response rating [4, 23]

C=CCn1c(=O)on(C(=O)N(c2ccc(F)cc2F)C2CC2)c1=O [Compound 127]
0: Plant response rating, Morningglory ([1]; Postemergence, Rate 1000 g/ha) | Plant response rating, Morningglory ([1]; Pre-emergence, Rate 2000 g/ha)

CC(C)N(C(=O)n1oc(=O)n(CC2CCCO2)c1=O)c1ccc(F)cc1 (stereo not shown) [Compound 343]
90: Plant response rating, C. ragweed ([9]; Rate 250 g/ha) | Plant response rating, Dallisgrass [10, 23] | Plant response rating, Dallisgrass [10, 24]
70: Surinam grass plant response rating [15, 24]
50: Plant response rating, Alexandergrass [7, 23] | Sandbur plant response rating [14, 24] | Plant response rating, Sandbur ([14]; Rate 250 g/ha)
60: Plant response rating, Bermudagrass [8, 23] | Plant response rating, C. ragweed [9, 24]
80: Plant response rating, Bermudagrass [8, 22]
0: Plant response rating, Alexandergrass [7, 25] | Plant response rating, Alexandergrass [7, 22] | Plant response rating, Bermudagrass [8, 25] | Plant response rating, C. ragweed [9, 25] | Plant response rating, C. ragweed [9, 22] | Plant response rating, C. ragweed [9, 23] | Plant response rating, Dallisgrass [10, 25] | Plant response rating, Itchgrass [11, 25] | Plant response rating, Itchgrass [11, 22] | Plant response rating, Johnsongrass [12, 25] | Plant response rating, Johnsongrass [12, 22] | Plant response rating, P. morninglory [13, 25] | Plant response rating, P. morninglory [13, 22] | Plant response rating, P. morninglory [13, 23] | Plant response rating, P. morninglory [13, 24] | Plant response rating, P. morninglory ([13]; Rate 250 g/ha) | Plant response rating, Sandbur [14, 25] | Plant response rating, Sandbur [14, 22] | Sandbur plant response rating [14, 23] | Plant response rating, Surinam grass [15, 25] | Plant response rating, Tall Mallow [16, 25] | Plant response rating, Tall Mallow [16, 22] | Tall Mallow plant response rating [16, 23] | Tall Mallow plant response rating [16, 24] | Plant response rating, Green foxtail ([18]; Rate 16 g/ha) | Plant response rating, Green foxtail ([21]; Rate 16 g/ha)
20: Plant response rating, Itchgrass [11, 23] | Plant response rating, Itchgrass [11, 24] | Plant response rating, Johnsongrass [12, 23] | Plant response rating, Johnsongrass [12, 24] | Plant response rating, Surinam grass [15, 22] | Surinam grass plant response rating [15, 23]
100: Plant response rating, Alexandergrass [7, 24] | Plant response rating, Alexandergrass ([7]; Rate 250 g/ha) | Plant response rating, Bermudagrass [8, 24] | Plant response rating, Bermudagrass ([8]; Rate 250 g/ha) | Plant response rating, Dallisgrass ([10]; Rate 250 g/ha) | Plant response rating, Johnsongrass ([12]; Rate 250 g/ha) | Plant response rating, Surinam grass ([15]; Rate 250 g/ha) | Plant response rating, Green foxtail [17] | Plant response rating, Green foxtail ([18]; Rate 32 g/ha) | Plant response rating, Green foxtail [19] | Green foxtail plant response rating ([20]; Rate 64 g/ha) | Green foxtail plant response rating ([20]; Rate 125 g/ha) | Plant response rating, Green foxtail ([21]; Rate 32 g/ha)
30: Plant response rating, Dallisgrass [10, 22] | Plant response rating, Itchgrass ([11]; Rate 250 g/ha) | Plant response rating, Tall Mallow ([16]; Rate 250 g/ha)
